Like-named read-outs stand apart in the source and are kept apart here. Non-standard residues stand in square brackets, D forms with d. Residues, ends and D or L forms follow the SMILES beside them. pY = N[C@@H](Cc1ccc(OP(=O)(O)O)cc1)C(=O)O
Assays:
Test in all cases: biochemical
Assay type in all cases: binding
FER = target: T1, FER (Homo sapiens, UniProt P16591)
T1 construct: the DNA-tagged SH2 domain concentrations used in this study were <0.1 nM; made in house; host or cells: HEK293 (transient transfection; unpurified extract)

TNS2 = target: T2, TNS2 (Homo sapiens, UniProt Q63HR2); conditions: for remaining activity at 10 µM: read-out: percent of DMSO vehicle control
T2 construct: made in house; host or cells: HEK293 (transient transfection), unpurified extract
T2 sequence (Q63HR2 1-1409): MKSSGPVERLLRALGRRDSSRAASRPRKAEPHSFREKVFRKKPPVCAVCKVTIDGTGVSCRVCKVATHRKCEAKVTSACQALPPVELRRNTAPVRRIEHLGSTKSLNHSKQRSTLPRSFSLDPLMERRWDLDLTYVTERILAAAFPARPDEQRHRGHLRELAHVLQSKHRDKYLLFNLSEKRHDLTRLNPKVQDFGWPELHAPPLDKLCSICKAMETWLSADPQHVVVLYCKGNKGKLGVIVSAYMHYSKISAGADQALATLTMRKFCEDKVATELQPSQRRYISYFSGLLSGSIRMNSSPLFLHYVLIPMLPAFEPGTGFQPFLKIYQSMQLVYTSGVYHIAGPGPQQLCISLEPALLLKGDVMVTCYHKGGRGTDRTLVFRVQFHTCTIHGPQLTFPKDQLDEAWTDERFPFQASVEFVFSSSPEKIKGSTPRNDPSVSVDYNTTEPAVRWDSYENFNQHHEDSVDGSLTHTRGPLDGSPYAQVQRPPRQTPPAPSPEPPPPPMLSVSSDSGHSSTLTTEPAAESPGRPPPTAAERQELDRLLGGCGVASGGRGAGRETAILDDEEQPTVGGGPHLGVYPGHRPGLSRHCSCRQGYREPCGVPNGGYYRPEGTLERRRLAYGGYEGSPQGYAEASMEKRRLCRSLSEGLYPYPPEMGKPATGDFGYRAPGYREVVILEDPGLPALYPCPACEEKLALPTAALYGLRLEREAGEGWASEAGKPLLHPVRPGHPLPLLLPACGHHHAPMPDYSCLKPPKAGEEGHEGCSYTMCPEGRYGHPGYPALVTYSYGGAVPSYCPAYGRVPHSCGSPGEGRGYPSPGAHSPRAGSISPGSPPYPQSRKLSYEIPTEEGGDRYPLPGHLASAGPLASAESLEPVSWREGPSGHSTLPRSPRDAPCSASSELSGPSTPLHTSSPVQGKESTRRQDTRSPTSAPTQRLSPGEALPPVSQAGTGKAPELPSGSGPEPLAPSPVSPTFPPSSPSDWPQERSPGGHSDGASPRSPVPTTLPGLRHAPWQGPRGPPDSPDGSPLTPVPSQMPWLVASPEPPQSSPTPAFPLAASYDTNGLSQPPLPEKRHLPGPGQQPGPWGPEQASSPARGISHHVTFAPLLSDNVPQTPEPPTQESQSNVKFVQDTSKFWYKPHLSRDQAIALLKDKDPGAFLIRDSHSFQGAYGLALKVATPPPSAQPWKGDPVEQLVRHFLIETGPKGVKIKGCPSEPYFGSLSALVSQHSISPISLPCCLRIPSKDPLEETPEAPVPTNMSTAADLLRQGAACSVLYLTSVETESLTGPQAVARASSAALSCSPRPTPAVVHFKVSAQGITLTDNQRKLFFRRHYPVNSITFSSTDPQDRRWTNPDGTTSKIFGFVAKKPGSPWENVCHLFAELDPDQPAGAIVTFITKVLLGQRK

SRMS = target: T3, SRMS (Homo sapiens, UniProt Q9H3Y6); conditions: for remaining activity at 10 µM: read-out: percent of DMSO vehicle control
T3 construct: made in house; host or cells: HEK293 (transient transfection), unpurified extract

TNS1 = target: T4, TNS1 (Homo sapiens, UniProt Q9HBL0)
T4 construct: made in house; host or cells: HEK293 (transient transfection), unpurified extract

YES = target: T5, YES (Homo sapiens, UniProt P07947); conditions: for remaining activity at 10 µM: read-out: percent of DMSO vehicle control
T5 construct: the DNA-tagged SH2 domain concentrations used in this study were <0.1 nM; made in house; host or cells: HEK293 (transient transfection; unpurified cell extract)

NCK2 = target: T6, NCK2 (Homo sapiens, UniProt O43639); conditions: for remaining activity at 10 µM: read-out: percent of DMSO vehicle control
T6 construct: the DNA-tagged SH2 domain concentrations used in this study were <0.1 nM; made in house; host or cells: HEK293 (transient transfection, unpurified extract)
T6 sequence (O43639 285-380 limits assumed): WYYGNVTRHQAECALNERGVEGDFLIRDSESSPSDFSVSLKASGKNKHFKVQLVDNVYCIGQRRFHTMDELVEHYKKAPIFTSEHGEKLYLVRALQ

VAV1 = target: T7, VAV1 (Homo sapiens, UniProt P15498)
T7 construct: made in house; host or cells: HEK293 (transient transfection), unpurified extract
T7 sequence (P15498 1-845): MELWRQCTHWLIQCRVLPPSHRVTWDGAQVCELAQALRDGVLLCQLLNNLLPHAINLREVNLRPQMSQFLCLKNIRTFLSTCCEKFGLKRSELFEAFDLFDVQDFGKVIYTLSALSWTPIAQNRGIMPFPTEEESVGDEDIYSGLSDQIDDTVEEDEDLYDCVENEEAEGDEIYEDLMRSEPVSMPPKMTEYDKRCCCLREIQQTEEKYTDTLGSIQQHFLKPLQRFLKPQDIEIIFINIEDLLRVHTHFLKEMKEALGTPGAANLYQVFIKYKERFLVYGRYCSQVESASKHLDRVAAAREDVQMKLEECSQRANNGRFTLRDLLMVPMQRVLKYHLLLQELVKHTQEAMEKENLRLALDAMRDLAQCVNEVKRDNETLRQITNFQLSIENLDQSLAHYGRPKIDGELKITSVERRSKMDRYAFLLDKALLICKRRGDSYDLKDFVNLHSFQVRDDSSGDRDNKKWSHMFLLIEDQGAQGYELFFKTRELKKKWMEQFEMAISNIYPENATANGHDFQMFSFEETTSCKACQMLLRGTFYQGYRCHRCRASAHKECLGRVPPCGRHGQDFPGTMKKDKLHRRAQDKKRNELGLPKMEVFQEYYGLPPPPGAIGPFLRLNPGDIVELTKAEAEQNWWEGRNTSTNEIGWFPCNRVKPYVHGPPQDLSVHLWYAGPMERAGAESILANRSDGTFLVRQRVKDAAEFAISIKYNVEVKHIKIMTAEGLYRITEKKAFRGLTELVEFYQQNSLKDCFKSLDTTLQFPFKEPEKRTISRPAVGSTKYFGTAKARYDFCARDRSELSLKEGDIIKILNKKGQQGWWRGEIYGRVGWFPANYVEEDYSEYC

FGR = target: T8, FGR (Homo sapiens, UniProt P09769); conditions: for remaining activity at 10 µM: read-out: percent of DMSO vehicle control
T8 construct: the DNA-tagged SH2 domain concentrations used in this study were <0.1 nM; made in house; host or cells: HEK293 (transient transfection; unpurified extract)

SH2D6 = target: T9, SH2D6 (Homo sapiens, UniProt Q7Z4S9); conditions: for remaining activity at 10 µM: read-out: percent of DMSO vehicle control
T9 construct: made in house; host or cells: HEK293 (transient transfection), unpurified extract

[1] = primary screen, 10 μM, read-out: percent of DMSO vehicle control
[2] = read-out: percent of DMSO vehicle control

T9 sequence (Q7Z4S9 whole entry): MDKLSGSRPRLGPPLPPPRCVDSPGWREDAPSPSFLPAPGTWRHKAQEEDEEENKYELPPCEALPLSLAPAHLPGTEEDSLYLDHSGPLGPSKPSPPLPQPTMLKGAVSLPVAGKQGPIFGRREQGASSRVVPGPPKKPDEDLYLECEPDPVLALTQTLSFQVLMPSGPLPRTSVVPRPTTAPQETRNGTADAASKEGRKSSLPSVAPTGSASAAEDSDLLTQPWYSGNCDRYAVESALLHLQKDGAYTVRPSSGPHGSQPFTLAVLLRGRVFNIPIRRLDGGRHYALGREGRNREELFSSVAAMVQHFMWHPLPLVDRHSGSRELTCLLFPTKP
T3 sequence (Q9H3Y6 whole entry): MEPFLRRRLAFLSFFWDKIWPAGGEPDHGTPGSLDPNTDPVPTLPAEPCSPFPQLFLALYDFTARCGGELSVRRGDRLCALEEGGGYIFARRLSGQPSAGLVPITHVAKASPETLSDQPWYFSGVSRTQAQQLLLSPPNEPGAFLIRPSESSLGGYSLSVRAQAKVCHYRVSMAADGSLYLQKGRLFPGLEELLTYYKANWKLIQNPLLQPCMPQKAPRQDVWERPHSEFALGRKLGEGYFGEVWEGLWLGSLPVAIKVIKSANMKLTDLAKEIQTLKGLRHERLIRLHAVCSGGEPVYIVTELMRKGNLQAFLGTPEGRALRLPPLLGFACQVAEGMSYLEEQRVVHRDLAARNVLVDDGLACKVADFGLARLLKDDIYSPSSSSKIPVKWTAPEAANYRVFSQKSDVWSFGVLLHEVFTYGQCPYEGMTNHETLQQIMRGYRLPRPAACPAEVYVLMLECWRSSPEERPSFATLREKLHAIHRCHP
T4 sequence (Q9HBL0 whole entry): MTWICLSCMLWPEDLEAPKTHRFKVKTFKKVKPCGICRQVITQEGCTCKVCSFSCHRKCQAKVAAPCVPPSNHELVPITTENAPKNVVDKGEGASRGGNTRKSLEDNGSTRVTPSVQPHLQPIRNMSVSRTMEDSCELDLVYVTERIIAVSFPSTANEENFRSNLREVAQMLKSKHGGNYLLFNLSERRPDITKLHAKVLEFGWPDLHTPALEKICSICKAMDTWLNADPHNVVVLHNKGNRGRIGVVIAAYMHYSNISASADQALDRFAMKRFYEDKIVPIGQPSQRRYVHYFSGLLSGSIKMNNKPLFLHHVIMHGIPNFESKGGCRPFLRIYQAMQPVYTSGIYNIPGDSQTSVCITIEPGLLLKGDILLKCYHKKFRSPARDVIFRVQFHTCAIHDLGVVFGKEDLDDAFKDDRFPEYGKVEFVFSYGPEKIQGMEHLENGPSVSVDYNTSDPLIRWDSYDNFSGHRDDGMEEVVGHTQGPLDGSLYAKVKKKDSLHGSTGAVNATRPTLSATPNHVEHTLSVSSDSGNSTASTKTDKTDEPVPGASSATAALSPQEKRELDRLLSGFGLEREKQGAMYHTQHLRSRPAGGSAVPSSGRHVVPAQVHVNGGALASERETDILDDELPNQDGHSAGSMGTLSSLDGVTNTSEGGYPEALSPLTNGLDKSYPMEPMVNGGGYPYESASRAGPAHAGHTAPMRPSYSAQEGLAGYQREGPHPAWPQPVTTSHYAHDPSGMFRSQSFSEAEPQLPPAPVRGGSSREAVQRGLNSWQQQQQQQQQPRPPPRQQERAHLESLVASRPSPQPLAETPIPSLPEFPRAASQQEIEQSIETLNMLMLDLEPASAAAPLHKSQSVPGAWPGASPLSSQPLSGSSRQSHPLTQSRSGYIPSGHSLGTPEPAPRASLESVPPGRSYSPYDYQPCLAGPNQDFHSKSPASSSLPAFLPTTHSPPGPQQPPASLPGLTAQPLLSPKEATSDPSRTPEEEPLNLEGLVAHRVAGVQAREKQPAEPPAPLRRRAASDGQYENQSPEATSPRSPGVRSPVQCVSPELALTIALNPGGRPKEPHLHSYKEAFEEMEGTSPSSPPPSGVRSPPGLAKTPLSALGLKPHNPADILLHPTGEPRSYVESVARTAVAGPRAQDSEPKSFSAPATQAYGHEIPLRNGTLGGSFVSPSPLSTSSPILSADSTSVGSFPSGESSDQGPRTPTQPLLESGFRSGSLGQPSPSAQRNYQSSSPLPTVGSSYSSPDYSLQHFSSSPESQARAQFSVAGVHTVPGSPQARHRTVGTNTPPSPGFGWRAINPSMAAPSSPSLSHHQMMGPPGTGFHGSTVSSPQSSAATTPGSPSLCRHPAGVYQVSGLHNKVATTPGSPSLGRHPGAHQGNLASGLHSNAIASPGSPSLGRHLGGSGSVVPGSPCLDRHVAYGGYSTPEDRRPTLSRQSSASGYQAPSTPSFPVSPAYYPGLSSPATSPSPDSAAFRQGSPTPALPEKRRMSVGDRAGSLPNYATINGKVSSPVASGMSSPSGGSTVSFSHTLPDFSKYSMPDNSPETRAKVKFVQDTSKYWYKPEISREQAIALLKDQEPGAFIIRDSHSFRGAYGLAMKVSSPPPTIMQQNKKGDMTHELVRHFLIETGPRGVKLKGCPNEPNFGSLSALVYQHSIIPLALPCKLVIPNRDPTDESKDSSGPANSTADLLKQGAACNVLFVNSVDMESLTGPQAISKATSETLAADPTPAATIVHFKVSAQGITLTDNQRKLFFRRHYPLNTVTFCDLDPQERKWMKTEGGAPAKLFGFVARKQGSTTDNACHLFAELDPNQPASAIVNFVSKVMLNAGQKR
T1 sequence (P16591 460-550 limits assumed): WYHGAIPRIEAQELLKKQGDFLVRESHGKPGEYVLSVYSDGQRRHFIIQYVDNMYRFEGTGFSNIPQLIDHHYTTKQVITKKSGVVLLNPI
T5 sequence (P07947 158-255 limits assumed): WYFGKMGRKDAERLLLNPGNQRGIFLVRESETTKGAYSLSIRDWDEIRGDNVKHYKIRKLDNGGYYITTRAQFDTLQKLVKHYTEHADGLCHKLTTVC
T8 sequence (P09769 144-241 limits assumed): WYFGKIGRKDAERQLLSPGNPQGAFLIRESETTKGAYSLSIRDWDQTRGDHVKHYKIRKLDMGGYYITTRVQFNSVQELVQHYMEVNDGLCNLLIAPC

O=C(CCl)Nc1cccc(CNC(=O)[C@H](Cc2ccc(OP(=O)(O)O)cc2)NC(=O)Cc2ccc(F)cc2)c1 [MN551]
remaining activity at 10 µM (FER; [1]): 1.1 ± 0.2% | remaining activity at 10 µM (TNS2; primary screen, 10 μM): 74.1 ± 2.1% | KD (SRMS; dose-response): No Hit | remaining activity at 10 µM (SRMS; primary screen, 10 μM): 1.3 ± 0.6% | remaining activity at 10 µM (TNS1; [1]): 134% | remaining activity at 10 µM (YES; primary screen, 10 μM): 46.5 ± 2.1% | remaining activity at 10 µM (NCK2; primary screen, 10 μM): 81.5 ± 3% | remaining activity at 10 µM (VAV1; [1]): 109% | remaining activity at 10 µM (FGR; primary screen, 10 μM): 49.8% | remaining activity at 10 µM (SH2D6; primary screen, 10 μM): 93.6 ± 4.8%

CC[C@H](C)[C@H](NC(=O)[C@H](CCC(=O)O)NC(=O)[C@H](CCC(=O)O)NC(=O)[C@H](Cc1ccc(OP(=O)(O)O)cc1)NC(C)=O)C(=O)N[C@@H](CCC(=O)O)C(N)=O [Ac-pYEEIE-NH2] (Ac-[pY]EEIE-NH2)
percent of DMSO vehicle control (FER; primary screen, 10 μM): 37.4% | percent of DMSO vehicle control (TNS2; primary screen, 10 μM): 104.0% | percent of DMSO vehicle control (SRMS; primary screen, 10 μM): 62.7±1.1% | percent of DMSO vehicle control (TNS1; primary screen, 10 μM): 161.1% | Kd (YES): 3800 nM | percent of DMSO vehicle control (YES; primary screen, 10 μM): 14.2±1.5% | percent of DMSO vehicle control (NCK2; primary screen, 10 μM): 74.9% | percent of DMSO vehicle control (VAV1; primary screen, 10 μM): 87.2±8.1% | percent of DMSO vehicle control (FGR; primary screen, 10 μM): 49.9±0.9% | percent of DMSO vehicle control (SH2D6; primary screen, 10 μM): 100.6%

CC(=O)N1CC[C@H]2CC[C@@H](C(=O)N[C@@H](CCC(N)=O)C(=O)NC(c3ccccc3)c3ccccc3)N2C(=O)[C@@H](NC(=O)c2cc3cc(C(F)(F)P(=O)(O)O)ccc3[nH]2)C1 [SI-109]
percent of DMSO vehicle control at 10 µM (FER; [2]): 107% | remaining activity at 10 µM (TNS2): 126% | remaining activity at 10 µM (SRMS): 123% | percent of DMSO vehicle control at 10 µM (TNS1; [2]): 152% | remaining activity at 10 µM (YES): 113% | remaining activity at 10 µM (NCK2): 121% | percent of DMSO vehicle control at 10 µM (VAV1; [2]): 112% | remaining activity at 10 µM (FGR): 128% | remaining activity at 10 µM (SH2D6): 96.9 ± 1.7%

CC(=O)N[C@@H](Cc1ccc(CP(=O)(O)O)cc1)C(=O)NC1(C(=O)N[C@@H](CC(N)=O)C(=O)NCCCc2c(O)ccc3ccccc23)CCCCC1 [CGP78850]
percent of DMSO vehicle control at 10 µM (FER; [2]): 136 ± 7.5% | Kd (TNS2): 1200 nM | remaining activity at 10 µM (TNS2): 16% | remaining activity at 10 µM (SRMS): 65.3 ± 5.9% | Kd (TNS1): 408 nM | percent of DMSO vehicle control at 10 µM (TNS1; [2]): 16.4 ± 0.3% | remaining activity at 10 µM (YES): 66.7 ± 8.3% | remaining activity at 10 µM (NCK2): 111 ± 23.7% | Kd (VAV1): 260 nM | percent of DMSO vehicle control at 10 µM (VAV1; [2]): 1.8 ± 0.4% | remaining activity at 10 µM (FGR): 43.3 ± 1.3% | remaining activity at 10 µM (SH2D6): 89.5 ± 8.4%
